This is an account of results in publication PMC5818190, “An allosteric binding site of the α7 nicotinic acetylcholine receptor revealed in a humanized acetylcholine-binding protein” (The Journal of Biological Chemistry, 2017).

For the experiment, the target named is T1, human α7 nAChR (Homo sapiens, UniProt P36544).
T1 construct: gene CHRNA7; full-length receptor, cRNA from pMXT vector, Xenopus laevis oocytes; homomeric pentamer
As to the kind of experiment: two-electrode voltage clamp, Xenopus oocytes. The experiment is classed as cell-based. (Two-electrode voltage clamp is typically applied to oocytes expressing channels or transporters.)

T1 sequence (P36544 23-502): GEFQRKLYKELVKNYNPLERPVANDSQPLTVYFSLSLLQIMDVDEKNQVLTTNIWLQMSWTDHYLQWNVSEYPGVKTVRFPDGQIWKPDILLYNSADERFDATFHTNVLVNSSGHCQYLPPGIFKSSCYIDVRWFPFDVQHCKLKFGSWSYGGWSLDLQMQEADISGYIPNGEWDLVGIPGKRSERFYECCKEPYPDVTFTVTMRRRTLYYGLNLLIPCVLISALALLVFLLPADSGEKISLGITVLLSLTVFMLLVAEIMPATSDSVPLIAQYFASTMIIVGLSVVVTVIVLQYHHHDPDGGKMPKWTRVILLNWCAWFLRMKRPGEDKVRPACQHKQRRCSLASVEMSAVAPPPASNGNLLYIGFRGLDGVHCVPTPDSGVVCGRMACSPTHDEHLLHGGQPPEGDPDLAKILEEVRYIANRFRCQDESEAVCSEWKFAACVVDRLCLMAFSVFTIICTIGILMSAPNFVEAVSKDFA

Usually IC50 stands for the concentration that gives 50% inhibition. Low values mean higher potency, high ones lower potency. For the compound `O=C(Nc1ccc(Br)cn1)[C@@H]1CCCNC1` [CU2017, N-(5-bromopyridin-2-yl)piperidine-3-carboxamide], the concentration for half-maximal inhibition (IC50) amounted to 26.7 ± 1.6 µM.
